{
  "source": "patent US20220204493A1",
  "about": "“CRYSTALLINE FORM OF A BET-INHIBITOR AND MANUFACTURE THEREOF” (ORION CORPORATION, priority 2019, published 2022)",
  "key": {"[1]": {"test": "Relative stability study between crystalline form 1 and 2 (storage at stressed conditions, XRPD at time points)", "type": "physicochemical", "description": "The XRPD pattern of the crystalline form 1 of compound (I) was measured using a PANalytical X'Celerator θ-θ diffractometer with CuKα radiation (40 kV, 30 mA). The diffractometer was operated in reflection mode. The measurements were performed in the range of 3°-40° 2θ. 100-300 mg of the sample powder was placed in the sample holder and the surface was pressed. For comparison purposes, the XRPD pattern of an unmilled sample of crystalline form 1 and the XRPD pattern of a milled sample of crystalline form 1 are shown together in FIG. 3.\nThe XRPD pattern of the amorphic form and the crystalline form 2 of compound (I) were measured as above except that a small sample amounts (approximately 5-10 mg) were first placed in the centre of a zero-background sample holder and then gently spread to a thin layer.\n(§1) Four samples of compound (I) in crystalline form 2 (with traces of form 1) prepared according to Example 10 were stored at stressed conditions. XRPD of each sample was recorded at initial time point and at further time points. Moreover, long term stability of crystalline form 1 of compound (I) at different storage conditions was studied."}, "[2]": {"test": "Long-term stability of crystalline form 1 at different storage conditions (XRPD)", "type": "physicochemical", "description": "as §1"}, "[3]": {"test": "Hygroscopicity of crystalline form 1", "type": "physicochemical"}},
  "data": [
    {"smiles": "COc1cc2c(cc1-c1c(C)noc1C)cc(C)c(=O)n2Cc1ccccn1", "note": "[amorphous compound (I), 6-(3,5-Dimethylisoxazol-4-yl)-7-methoxy-3-methyl-1-(pyridin-2-ylmethyl)quinolin-2(1H)-one]", "values": [
      {"measurement": "melting point", "result": 180, "unit": "°C"}
    ]},
    {"smiles": "COc1cc2c(cc1-c1c(C)noc1C)cc(C)c(=O)n2Cc1ccccn1", "note": "[Crystalline form 1, 6-(3,5-dimethylisoxazol-4-yl)-7-methoxy-3-methyl-1-(pyridin-2-ylmethyl)quinolin-2(1H)-one]", "values": [
      {"measurement": "Relative stability of the crystalline forms", "setting": "[1]; all studied conditions", "result": "more stable than form 2"},
      {"measurement": "Physical stability", "setting": "[2]", "result": "physically stable"},
      {"measurement": "Long-term stability, changes by XRPD", "setting": "[2]; 25° C./RH 60 % and 40° C./RH 75 %", "result": "no changes were observed"},
      {"measurement": "Long-term stability (stable up to; no changes by XRPD)", "setting": "[2]; storage 25° C./RH 60 %", "result": "Stable up to 24 months"},
      {"measurement": "Long-term stability (stable up to; no changes by XRPD)", "setting": "[2]; storage 40° C./RH 75 %", "result": "Stable up to 6 months"},
      {"measurement": "Hygroscopicity", "setting": "[3]", "result": "low hygroscopicity"}
    ]},
    {"smiles": "COc1cc2c(cc1-c1c(C)noc1C)cc(C)c(=O)n2Cc1ccccn1", "note": "[crystalline form 2, 6-(3,5-dimethylisoxazol-4-yl)-7-methoxy-3-methyl-1-(pyridin-2-ylmethyl)quinolin-2(1H)-one]", "values": [
      {"measurement": "Crystalline form found by XRPD", "setting": "[1]; 25 °C/RH 60 %, 2 weeks", "result": "II +"},
      {"measurement": "Crystalline form found by XRPD", "setting": "[1]; 25 °C/RH 60 %, 4 weeks", "result": "II +"},
      {"measurement": "Crystalline form found by XRPD", "setting": "[1]; 25 °C/RH 60 %, 12 weeks", "result": "II +"},
      {"measurement": "Crystalline form found by XRPD", "setting": "[1]; 25 °C/RH 60 %, 24 weeks", "result": "I +"},
      {"measurement": "Crystalline form found by XRPD", "setting": "[1]; 25 °C/RH 60 %, initial", "result": "II +"},
      {"measurement": "Crystalline form found by XRPD", "setting": "[1]; 30 °C/RH 65 %, 2 weeks", "result": "II +"},
      {"measurement": "Crystalline form found by XRPD", "setting": "[1]; 30 °C/RH 65 %, 4 weeks", "result": "II +"},
      {"measurement": "Crystalline form found by XRPD", "setting": "[1]; 30 °C/RH 65 %, 12 weeks", "result": "II +"},
      {"measurement": "Crystalline form found by XRPD", "setting": "[1]; 30 °C/RH 65 %, 24 weeks", "result": "I +"},
      {"measurement": "Crystalline form found by XRPD", "setting": "[1]; 30 °C/RH 65 %, initial", "result": "II +"},
      {"measurement": "Crystalline form found by XRPD", "setting": "[1]; 40 °C/RH 75 %, 2 weeks", "result": "II +"},
      {"measurement": "Crystalline form found by XRPD", "setting": "[1]; 40 °C/RH 75 %, 4 weeks", "result": "II +"},
      {"measurement": "Crystalline form found by XRPD", "setting": "[1]; 40 °C/RH 75 %, initial", "result": "II +"},
      {"measurement": "Crystalline form found by XRPD", "setting": "[1]; RT/RH 5 %, initial", "result": "II +"},
      {"measurement": "Time for transformation of form 2 to form 1", "setting": "[1]; all studied conditions", "result": "≤ 36", "unit": "weeks"}
    ]}
  ]
}
